Measurements taken from patent US10765114B2, “4-amino-6-(pyridyl and 2-substitutedphenyl)-picolinates and 6-amino-2-(pyridyl and 2-substitutedphenyl)-pyrimidine-4-carboxylates and their use as herbicides” (Dow AgroSciences LLC, priority 2013, dated 2020).
Read-outs that look alike come from different tables or passages of the source.

Tests used:
[1] = system: Key Broadleaf Weed and Crop Species; test: Post-Emergent Test II (Table 5); type: in vivo; settings: post-emergence, 336 h; for pest or weed control at 70 g/ha: application rate 70 (kg ai/ha; footnote: g ai/ha); for pest or weed control at 140 g/ha: application rate 140 (kg ai/ha; footnote: g ai/ha)
How it was run: (§1)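 Growth stage at treatment: first or second true leaf. Application: compound in acetone/DMSO diluted into an adjuvant-containing aqueous mix, sprayed at 187 L/ha at several rates. Assessment: visual 0-100% injury at 14 days against untreated plants.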

[2] = system: Key Grass and Sedge Weeds as well as Grass Crops; test: Post-Emergent Test II (Table 6); type: in vivo; settings: post-emergence, 336 h, 14 days after application; for pest or weed control at 70 g/ha: 70 g ai/ha; for pest or weed control at 140 g/ha: 140 g ai/ha
How it was run: as §1

[3] = Abutilon theophrasti, ABUTH: velvetleaf (Abutilon theophrasti), read-out: Visual Growth Reduction (%) 14 Days After Application ABUTH
[4] = Amaranthus retroflexus, AMARE: redroot pigweed (Amaranthus retroflexus), read-out: Visual Growth Reduction (%) 14 Days After Application AMARE
[5] = Brassica napus, BRSSS: oilseed rape, canola (Brassica napus), read-out: Visual Growth Reduction (%) 14 Days After Application BRSSS
[6] = Chenopodium album, CHEAL: lambsquarters (Chenopodium album), read-out: Visual Growth Reduction (%) 14 Days After Application CHEAL
[7] = Euphorbia heterophylla, EPHHL: wild poinsettia (Euphorbia heterophylla), read-out: Visual Growth Reduction (%) 14 Days After Application EPHHL
[8] = Helianthus annuus, HELAN: sunflower (Helianthus annuus), read-out: Visual Growth Reduction (%) 14 Days After Application HELAN
[9] = Viola tricolor, VIOTR: wild pansy (Viola tricolor), read-out: Visual Growth Reduction (%) 14 Days After Application VIOTR
[10] = CYPSS, read-out: Visual Growth Reduction (%) 14 Days After Application CYPSS
[11] = DIGSA: crabgrass (Digitaria sanguinalis), read-out: Visual Growth Reduction (%) 14 Days After Application DIGSA
[12] = ECHSS, read-out: Visual Growth Reduction (%) 14 Days After Application ECHSS
[13] = ORYSS (crop), read-out: Visual Growth Reduction (%) 14 Days After Application ORYSS
[14] = SETFA: giant foxtail (Setaria faberi), read-out: Visual Growth Reduction (%) 14 Days After Application SETFA
[15] = SORVU: grain sorghum (Sorghum vulgare), read-out: Visual Growth Reduction (%) 14 Days After Application SORVU
[16] = TRZSS (crop), read-out: Visual Growth Reduction (%) 14 Days After Application TRZSS
[17] = ZEAMX: maize, corn (Zea mays), read-out: Visual Growth Reduction (%) 14 Days After Application ZEAMX

SMILES	pest or weed control at 70 g/ha [1, 3] [%]	pest or weed control at 140 g/ha [1, 3] [%]	pest or weed control at 70 g/ha [1, 4] [%]	pest or weed control at 140 g/ha [1, 4] [%]	pest or weed control at 70 g/ha [1, 5] [%]	pest or weed control at 140 g/ha [1, 5] [%]	pest or weed control at 70 g/ha [1, 6] [%]	pest or weed control at 140 g/ha [1, 6] [%]	pest or weed control at 70 g/ha [1, 7] [%]	pest or weed control at 140 g/ha [1, 7] [%]	pest or weed control at 70 g/ha [1, 8] [%]	pest or weed control at 140 g/ha [1, 8] [%]	pest or weed control at 70 g/ha [1, 9] [%]	pest or weed control at 140 g/ha [1, 9] [%]	melting point [°C]	pest or weed control at 70 g/ha [2, 10] [%]	pest or weed control at 140 g/ha [2, 10] [%]	pest or weed control at 70 g/ha [2, 11] [%]	pest or weed control at 140 g/ha [2, 11] [%]	pest or weed control at 70 g/ha [2, 12] [%]	further results
Nc1c(F)c(-c2ccc(C(F)F)nc2)nc(C(=O)O)c1Cl [Compound 27, 4-amino-5-chloro-6′-(difluoromethyl)-3-fluoro-[2,3′-bipyridine]-6-carboxylic acid]	85 to 94	95 to 100	95 to 100	95 to 100	85 to 94	85 to 94	95 to 100	95 to 100	95 to 100	95 to 100	95 to 100	95 to 100	60 to 74	60 to 74	167 to 169	95 to 100	95 to 100	75 to 84	85 to 94	85 to 94	pest or weed control at 140 g/ha [2, 12]: 85 to 94%; pest or weed control at 70 g/ha [2, 13]: 0 to 29%; pest or weed control at 140 g/ha [2, 13]: 0 to 29%; pest or weed control at 70 g/ha [2, 14]: 75 to 84%; pest or weed control at 140 g/ha [2, 14]: 85 to 94%; pest or weed control at 70 g/ha [2, 15]: 75 to 84%; pest or weed control at 140 g/ha [2, 15]: 85 to 94%; pest or weed control at 70 g/ha [2, 16]: 45 to 59%; pest or weed control at 140 g/ha [2, 16]: 60 to 74%; pest or weed control at 70 g/ha [2, 17]: 60 to 74%; pest or weed control at 140 g/ha [2, 17]: 75 to 84%
COC(=O)c1nc(-c2ccc(Cl)nc2Cl)cc(N)c1Cl [Compound 15, methyl 4-amino-2′,5,6′-trichloro-[2,3′-bipyridine]-6-carboxylate]	75 to 84	85 to 94	95 to 100	95 to 100	60 to 74	75 to 84	85 to 94	85 to 94	0 to 29	0 to 29	85 to 94	95 to 100	30 to 44	30 to 44	231	0 to 29	0 to 29	0 to 29	0 to 29	0 to 29	pest or weed control at 140 g/ha [2, 12]: 0 to 29%; pest or weed control at 70 g/ha [2, 13]: 0 to 29%; pest or weed control at 140 g/ha [2, 13]: 0 to 29%; pest or weed control at 70 g/ha [2, 14]: 0 to 29%; pest or weed control at 140 g/ha [2, 14]: 0 to 29%; pest or weed control at 70 g/ha [2, 15]: 0 to 29%; pest or weed control at 140 g/ha [2, 15]: 0 to 29%; pest or weed control at 70 g/ha [2, 16]: 0 to 29%; pest or weed control at 140 g/ha [2, 16]: 0 to 29%; pest or weed control at 70 g/ha [2, 17]: 0 to 29%; pest or weed control at 140 g/ha [2, 17]: 0 to 29%
COC(=O)c1nc(-c2ccc(Cl)c(Cl)c2Cl)c(F)c(N)c1Cl [Compound 12]	85 to 94	85 to 94	95 to 100	95 to 100	75 to 84	75 to 84	85 to 94	85 to 94	75 to 84	75 to 84	85 to 94	85 to 94	0 to 29	0 to 29	195 to 196	0 to 29	45 to 59	30 to 44	45 to 59	0 to 29	pest or weed control at 140 g/ha [2, 12]: 0 to 29%; pest or weed control at 70 g/ha [2, 13]: 0 to 29%; pest or weed control at 140 g/ha [2, 13]: 0 to 29%; pest or weed control at 70 g/ha [2, 14]: 45 to 59%; pest or weed control at 140 g/ha [2, 14]: 45 to 59%; pest or weed control at 70 g/ha [2, 15]: 0 to 29%; pest or weed control at 140 g/ha [2, 15]: 30 to 44%; pest or weed control at 70 g/ha [2, 16]: 0 to 29%; pest or weed control at 140 g/ha [2, 16]: 0 to 29%; pest or weed control at 70 g/ha [2, 17]: 75 to 84%
COC(=O)c1nc(-c2ccc(C3CC3)nc2)c(F)c(N)c1Cl [Compound 49]	95 to 100	95 to 100	95 to 100	95 to 100	75 to 84	75 to 84	95 to 100	95 to 100	95 to 100	95 to 100	95 to 100	95 to 100	30 to 44	45 to 59	124 to 126	95 to 100	95 to 100	75 to 84	75 to 84	95 to 100	pest or weed control at 140 g/ha [2, 12]: 95 to 100%; pest or weed control at 70 g/ha [2, 13]: 30 to 44%; pest or weed control at 140 g/ha [2, 13]: 30 to 44%; pest or weed control at 70 g/ha [2, 14]: 85 to 94%; pest or weed control at 140 g/ha [2, 14]: 85 to 94%; pest or weed control at 70 g/ha [2, 15]: 85 to 94%; pest or weed control at 140 g/ha [2, 15]: 85 to 94%; pest or weed control at 70 g/ha [2, 16]: 45 to 59%; pest or weed control at 140 g/ha [2, 16]: 45 to 59%; pest or weed control at 70 g/ha [2, 17]: 95 to 100%; pest or weed control at 140 g/ha [2, 17]: 95 to 100%
